According to patent US20180036259A1, “NO DONORS FOR THE TREATMENT OF IMPAIRED TISSUE PERFUSION” (MIRANDAPHARMACEUTICALS AG, priority 2015, published 2018):
“Also recorded” adds a separate entry of the source.

Tests used:
[1] = in vivo; cited from earlier work
[2] = in humans; cited from earlier work
[3] = system: ligated hind limb (unilateral hind limb ischemia); assay: Blood perfusion by laser Doppler imaging in rat unilateral hind limb ischemia model of PAD; format: in vivo, Sprague-Dawley (SD) rats; details: SD rats; for blood perfusion in ligated limbs (laser Doppler imaging): hind limb ischemia, CLC-1011 3.6 mg/day by osmotic pump, Cilostazol 100 mg/kg bi-daily orally, over 21 days (FIG. 1)
Method: (§1) The animals were held in the Open Animal Facility at the Department of Physiology, University of Zurich and used after a suitable period allowing the animals to adapt to the new environment. A unilateral hind limb ischemia was created in the SD rats by surgical intervention, whereby the right hind limb was ligated and the vessels excised as described in Vasc. Pharmacol., 2009, 51(4):268-74. The animals were then randomly assigned to receive either Cilostazol alone (100 mg/kg/bi-daily orally by gavage), CLC-1011 (3.6 mg/day by mini-osmotic pump, e.g. Model #2004, Alzet Inc.) alone, a combination of Cilostazol (100 mg/kg/bi-daily) and CLC-1011 (3.6 mg/day by mini-osmotic pump), or placebo for a total duration of 2 or 4 weeks.
(§2) During the treatment intervals, animals were scanned using laser Doppler imaging every third day post-operation to estimate the blood perfusion in ligated limbs. Blood flow was measured using a laser Doppler imager (Moor, Axminster, UK) and analyzed with the MoorLDI™ Image Review V51 software. The animals were placed on a heating pad in order to maintain constant body temperature during the entire procedure. At the end of the 2 and 4 weeks interval, animals were sacrificed and muscles were isolated and prepared for histological analysis.

[4] = system: adductor muscle of hypoxic limb; assay: Histological analysis of muscles (new vessels, capillary and arteriole density), rat hind limb ischemia; format: in vivo, Sprague-Dawley (SD) rats; details: SD rats; for number of arterioles in isolated muscles (arterioles density/mm^2): at 4 weeks, compared to Cilostazol- and placebo-treated animals (FIG. 5)
Method: as §1, §2

[5] = system: arterioles of adductor muscle; assay: Vascular remodelling, histopathological analysis of isolated adductor muscle; format: in vivo; details: SD rats, compared to Cilostazol and placebo (FIG. 7)
Method: In order to assess possible effects the different treatments have on vascular remodelling, histopathological analysis of isolated adductor muscle was performed and the vascular luminal- and vascular wall-properties were addressed. […] See FIG. 7 showing in the left panel the arteriolar wall area/luminar ratio in the four treatment arms.

platelets = assay: Platelet activation by mean fluorescence intensity in platelets isolated from treatment groups; format: in vivo; details: platelets from treated rats; resting state (FIG. 8)
Method: Platelet activation was determined using mean fluorescence measurements.

[6] = system: stromal cell-derived factor 1 (SDF-1); assay: Circulating SDF-1 levels in serum by ELISA; format: in vivo; details: rats; serum at day 6 post-ischemia; ELISA (FIG. 9)
Method: The stromal cell-derived factor 1 (SDF-1) is a circulating proangiogenic cytokine, which plays an important role in angiogenesis. Serum of rats from 4 treatment arms was collected at day 6 post-ischemia. SDF-1 levels were determined by ELISA using methods known in the art.

ischemic hind limb = assay: Blood flow by laser Doppler imaging in diabetic mice with hind limb ischemia; format: in vivo, diabetic mouse (Bks.Cg+Lepr<db>/+Lepr<db>/OlaHsd); details: for blood perfusion (laser Doppler imaging): diabetic mice with hind limb ischemia (FIG. 10a)
Method: Blood flow was measured by laser Doppler imaging in diabetic mice with hind limb ischemic after treatment with CLC-1011 alone or in a combination with Cilostazol.

adductor muscles = assay: Immunohistochemical analysis of adductor muscles (capillary density), diabetic mice; format: in vivo, diabetic mouse (Bks.Cg+Lepr<db>/+Lepr<db>/OlaHsd); details: normalized by number of myocytes (FIG. 11a, 11b)
[7] = system: arterioles of adductor muscle; assay: Arterioles density by alpha-SMA immunohistology, diabetic mice; format: in vivo, diabetic mouse (Bks.Cg+Lepr<db>/+Lepr<db>/OlaHsd); details: alpha-SMA immunohistology (FIG. 12)
Method: Immunohistology for the alpha-smooth muscle (α-SMA) antigen was employed to highlight the vascular structures within the muscles and allow accurate counting of arterioles. Briefly, sections were deparaffinised in xylene (2×5 min) and rehydrated in decreasing concentrations of ethanol (2×3 min washes in 100% ethanol, followed by 1×3 min wash in 96% ethanol). Sections were washed twice with Tris-buffered saline (TBS, 0.1 M Tris- HCl with 0.9% NaCl, pH 7.4) and incubated for 1 h at room temperature (RT) with the primary antisera (M0851, Dako, Baar, Switzerland), without pretreatment. A detection kit containing the secondary antibody and diaminobenzidine tetrahydrochloride (DAB) as chromogen was subsequently applied according to the manufacturer's protocols
(Peroxidase/DAB plus Mouse Kit; DAKO). Sections were then washed 3 times in TBS and once in distilled water and counterstained for 1 min with haematoxylin, followed by rinsing for 5 min in tap water and dehydration in ascending alcohols, clearing in xylene, coverslipping and mounting. Arterioles density was quantified in histological sections of the adductor muscle. Results were expressed as number of arterioles/mm^2 of tissue.

arterioles = assay: Arteriolar remodeling response to ischemia (wall and luminal area), diabetic mice; format: in vivo, diabetic mouse (Bks.Cg+Lepr<db>/+Lepr<db>/OlaHsd); details: arterioles (FIG. 13)
Method: These findings corroborate with the remodeling effect of CLC-1011 seen at the vascular wall. To check the arteriolar remodeling response to the ischemia, immunohistochemistry was performed as described above. The remodeling consists in the wall area per luminal area ratio. The measurement of wall and luminal areas and diameter calculation of arterioles was performed in an equal random area for each histological sample. The results shown in FIG. 13a; FIG. 13b and FIG. 13c indicate that the luminal area of the vessels increased in the CLC-1011-treated animals, but not in the Cilostazol- or the placebo-treated animals. Of note, the results indicated no change in the wall area size in either of the groups.

[8] = system: endothelial progenitor cells; assay: Mobilization of putative stem cells into peripheral blood by flow cytometry, diabetic mice; format: in vivo, diabetic mouse (Bks.Cg+Lepr<db>/+Lepr<db>/OlaHsd)
Method: Mobilization of putative stern cells from bone marrow into the peripheral blood in the placebo and treated groups mice 7 days after surgery was assessed by flow cytometry in whole blood. The cells were identified using a combination of antibodies that binds to the specific cell surface markers typical for potential angiogenic stem cells.

[9] = whole blood flow cytometry, 7 days after surgery (FIG. 14)

SMILES | half-live [1] | nitrate tolerance [2] | blood perfusion in ligated limbs (laser Doppler imaging) [3] | time up to which the increase in blood perfusion can be detected ([3]; ligated hind limb normalized to contralateral limb (FIG. 6)) | angiogenesis / capillary density in the adductor muscle ([4]; after 2 and 4 weeks of treatment, 28 days after surgery (FIG. 4)) | number of arterioles in isolated muscles (arterioles density/mm^2) [4] | number of arterioles in isolated muscles (arterioles density/mm^2) ([4]; listed as CL-1011) | formation of new blood vessels in hypoxic limb tissue ([4]; tissue sections (FIG. 3)) | luminal area of the vessels [5] | platelet activation (mean fluorescence intensity) (platelets) | circulating SDF-1 levels in serum [6] | blood perfusion (laser Doppler imaging) (ischemic hind limb) | area under the curve of blood flow (ischemic hind limb; diabetic mice with hind limb ischemia (FIG. 10b)) | capillary density in adductor muscles (adductor muscles) | arterioles density in the hind limb [7] | luminal area of the vessels (arterioles) | recruitment of the endothelial progenitor cells ([8]; peripheral blood 7 days after surgery) | number of potential endothelial progenitor cells positive for VEGFR2 [8, 9] | number of potential endothelial progenitor cells positive for stem cell antigen 1 (Sca-1) [8, 9]
NCCO[N+](=O)[O-] [AEN, 2-aminoethyl nitrate] | approx. 2 hours | does not provoke nitrate tolerance |  |  |  |  |  |  |  |  |  |  |  |  |  |  |  |  | 
NCCO[N+](=O)[O-] [CLC-1011, 2-aminoethyl nitrate] |  |  | increase in blood perfusion | up to 3 weeks | significant arteriogenic effects; also recorded: angiogenesis has been stimulated | significant arteriogenic effects | significantly contributes to an increase of the number of arterioles | clear increase in the formation of new blood vessels | significantly increases luminal area | significantly prevents activation of platelets in resting state | induced the release of the circulating SDF-1 | increase in the blood perfusion; also recorded: increased blood perfusion | increase of the area under the curve | increase of the capillary density | increase of the arterioles | increased | enhances the recruitment of the endothelial progenitor cells | increase in the number of potential endothelial progenitor cells | increase in the number of potential endothelial progenitor cells
O=C1CCc2cc(OCCCCc3nnnn3C3CCCCC3)ccc2N1 [Cilostazol, reference compound] |  |  | no effect in blood flow |  |  |  |  |  | such effect is absent | no effect in prevention of platelet activation and aggregation |  | remains unchanged |  |  | no change | not |  |  | 
